Measured values from patent publication US12377100B2 (GILEAD SCIENCES, INC., priority 2015, dated 2025).

Columns and labels:
Type in all cases: cell-based
Details in all cases: human PBMCs, 24 hours incubation
IL12p40 = assay: PBMC cytokine profiling assay, IL12-p40 induction
Method: (§1) Certain compounds disclosed herein we tested according to the procedure described below. Additionally, certain reference compounds were prepared and tested along with the compounds of the present disclosure.
(§2) Compounds were dissolved and stored in DMSO (Sigma-Aldrich, St. Louis, MO) at 10 mM concentration.
(§3) Cryopreserved human PBMCs isolated from healthy donors were purchased from StemCell Technologies (Vancouver, Canada). Cell culture medium used was RPMI with L-Glutamine (Mediatech, Manassas, VA) supplemented with 10% fetal bovine serum (Hyclone, GE Healthcare, Logan, UT) and Penicillin-Streptomycin (Mediatech). Human TNFα, IL12p40, and IFNα2a 384-well Assay capture plates, standards, buffers and processing reagents were obtained from MesoScale Discovery Technologies (MSD; Rockville, MD).
(§4) Cryopreserved human PBMCs (1×10e8 cells/ml) were thawed at 37° C. and resuspended in 25 mL warm cell culture medium. The cells were pelleted at 200×g (Beckman Avanti J-E) for 5 min and resuspended in 20 mL of fresh culture media. Cells were counted using a Cellometer (Nexcelcom Bioscience), adjusted to 2×10e6 cells, and incubated for 2 hours in an incubator set at 37° C., 5% CO2 to recover from cryopreservation. Compounds were serially diluted in DMSO at half-log steps to generate a 10-point dose range. Using a Bravo pipette equipped with a 384 well head (Agilent), 0.4 μL of compound was transferred to each well of a 384 well black, clear bottom plate (Greiner Bio-One, Germany) containing 30 μL of cell culture medium. Recovered PBMCs were then dispensed into the assay plate at 50 μL per well (100k cells/well) using the MicroFlow multichannel dispenser (Biotek). Final DMSO concentration was 0.5%. DMSO was used as the negative control. The plates were incubated for 24 hours at 37° C. PBMCs in the assay plate were pelleted by centrifugation (Beckman Avanti J-E) at 200×g for 5 min.
(§5) Using a Biomek FX 384 well pipetting station (Beckman), conditioned culture medium (CCM) from the assay plate was transferred to MSD capture plates customized for each cytokine. For IFNα and IL12-p40 detection, 25 μL and 20 μL of CCM were added directly to each capture plate, respectively. For TNFα detection, CCM was diluted 1:9 in fresh culture medium, and 20 μL of diluted CCM was used. Serially diluted calibration standards for each cytokine were used to generate standard curves and establish assay linearity. The plates were sealed and incubated overnight at 4° C. in a plate shaker (Titer Plate) set at 200 rpm. On the following day, antibodies specific for each cytokine were diluted 1:50 in MSD Diluent 100 antibody dilution buffer. Diluted antibodies were added to corresponding capture plates at 10 μL/well, and incubated at RT for 1-2 hrs in the shaker. The plates were washed with PBST buffer (3×, 60 μl/well) using a Biotek Multiflow plate washer. MSD Read Buffer diluted to 2× in deionized water and 35 μL/well was added via Biomek FX instrument. The plates were read immediately in a MSD6000 reader. Data were normalized to positive and negative controls in each assay plate. AC50 values represent compound concentrations at half-maximal effect based on normalized percent activation and calculated by non-linear regression using Pipeline Pilot software (Accelrys, San Diego, CA).

TNFα = assay: PBMC cytokine profiling assay, TNFα induction
Method: as §1, §2, §3, §4, §5

IFNα = assay: PBMC cytokine profiling assay, IFNα induction
Method: as §1, §2, §3, §4, §5

Row | SMILES | AC50 (IL12p40; Homo sapiens, PBMC, 24 h) | AC50 (TNFα; Homo sapiens, PBMC, 24 h) | AC50 (IFNα; Homo sapiens, PBMC, 24 h) | AC50 (IL12p40) | AC50 (TNFα) | AC50 (IFNα)
1 | CCC[C@@H](CO)Nc1nc(N)nc2cc(CC)cnc12 [Example 21, (S)-2-((2-amino-7-ethylpyrido[3,2-d]pyrimidin-4-yl)amino)pentan-1-ol] | 2.3 µM | 3.1 µM | 4.8 µM |  |  | 
2 | CCC[C@H](Nc1nc(N)nc2cccnc12)C(=O)NC [Example 31, (S)-2-((2-aminopyrido[3,2-d]pyrimidin-4-yl)amino)-N-methylpentanamide] | 4.7 µM | 4.7 µM | 32.9 µM |  |  | 
3 | CSCC[C@@H](CO)Nc1nc(N)nc2cccnc12 [Example 10, (S)-2-((2-aminopyrido[3,2-d]pyrimidin-4-yl)amino)-4-(methylthio)butan-1-ol] | 23.8 µM | 29.2 µM | > 50 µM |  |  | 
4 | CC(C)(O)CC[C@H](CO)Nc1nc(N)nc2cccnc12 [Example 110] | 32.6 µM | 32.6 µM | 32.6 µM |  |  | 
5 | CCCC[C@@H](CO)Nc1nc(N)nc2cc(F)cnc12 [Example 45, (S)-2-((2-amino-7-fluoropyrido[3,2-d]pyrimidin-4-yl)amino)hexan-1-ol] | 1.3 µM | 1.6 µM | 8.3 µM |  |  | 
6 | C=CCC[C@](C)(CO)Nc1nc(N)nc2cccnc12 [Example 83, (R)-2-((2-aminopyrido[3,2-d]pyrimidin-4-yl)amino)-2-methylhex-5-en-1-ol] | 1.8 µM | 1.7 µM | 43.1 µM |  |  | 
7 | CCC[C@@H](CO)Nc1nc(N)nc2cc(Cl)cnc12 [Example 19E, (S)-2-((2-amino-7-chloropyrido[3,2-d]pyrimidin-4-yl)amino)pentan-1-ol] | 2.5 µM | 3.3 µM | 21.6 µM |  |  | 
8 | CCCC[C@@H](Nc1nc(N)nc2cccnc12)C(O)C(F)F (single isomer, unassigned) [Example 90] | 0.62 µM | 0.86 µM | 7.8 µM |  |  | 
9 | CCCC[C@H](CO)Nc1nc(N)nc2cc(C)cnc12 [Example 107, (R)-2-((2-amino-7-methylpyrido[3,2-d]pyrimidin-4-yl)amino)hexan-1-ol] | 1.8 µM | 2.8 µM | > 50 µM |  |  | 
10 | CCCCC[C@](C)(CNC(C)=O)Nc1nc(N)nc2cc(Cl)cnc12 [Example 117, (R)—N-(2-((2-amino-7-chloropyrido[3,2-d]pyrimidin-4-yl)amino)-2-methylheptyl)acetamide] | 0.33 µM | 0.37 µM | > 50 µM |  |  | 
11 | CCCC(C)Nc1nc(N)nc2cccnc12 (stereo not drawn) [Example 2B, N^4-(pentan-2-yl)pyrido[3,2-d]pyrimidine-2,4-diamine] | 2.8 µM | 5.4 µM | 4.3 µM |  |  | 
12 | CCCC[C@H](CO)Nc1nc(N)nc2cc(OC)cnc12 [Example 105, (R)-2-((2-amino-7-methoxypyrido[3,2-d]pyrimidin-4-yl)amino)hexan-1-ol] | 3.4 µM | 3.5 µM | > 50 µM |  |  | 
13 | CC[C@H](C)[C@@H](CO)Nc1nc(N)nc2cccnc12 [Example 9, (2S,3S)-2-((2-aminopyrido[3,2-d]pyrimidin-4-yl)amino)-3-methylpentan-1-ol] | 1.1 µM | 1.9 µM | 7.2 µM |  |  | 
14 | C=CCC[C@](C)(CO)Nc1nc(N)nc2cc(F)cnc12 [Example 84, (R)-2-((2-amino-7-fluoropyrido[3,2-d]pyrimidin-4-yl)amino)-2-methylhex-5-en-1-ol] | 3.9 µM | 3 µM | > 50 µM |  |  | 
15 | C=CCC[C@H](CO)Nc1nc(N)nc2cccnc12 [Example 72, (R)-2-((2-aminopyrido[3,2-d]pyrimidin-4-yl)amino)hex-5-en-1-ol] | 7 µM | 7.2 µM | > 50 µM |  |  | 
16 | CCCC[C@H](CCO)Nc1nc(N)nc2cccnc12 [Example 100, (R)-3-((2-aminopyrido[3,2-d]pyrimidin-4-yl)amino)heptan-1-ol] | 3.5 µM | 3.8 µM | 4.6 µM |  |  | 

Row | SMILES | AC50 (IL12p40; Homo sapiens, PBMC, 24 h) | AC50 (TNFα; Homo sapiens, PBMC, 24 h) | AC50 (IFNα; Homo sapiens, PBMC, 24 h) | AC50 (IL12p40) | AC50 (TNFα) | AC50 (IFNα)
17 | C=CC[C@H](CO)Nc1nc(N)nc2cccnc12 [Example 108, (R)-2-((2-aminopyrido[3,2-d]pyrimidin-4-yl)amino)pent-4-en-1-ol] | 22 µM | 38.7 µM | > 50 µM |  |  | 
18 | CCCC[C@@H](CO)Nc1nc(N)nc2ccccc12 [Example 48, (S)-2-((2-aminoquinazolin-4-yl)amino)hexan-1-ol] | 0.71 µM | 0.85 µM | 0.57 µM |  |  | 
19 | CCCC[C@](C)(CN[C@@H](C)C(F)(F)F)Nc1nc(N)nc2cccnc12 [Example 118, N^4—((R)-2-methyl-1-(((S)-1,1,1-trifluoropropan-2-yl)amino)hexan-2-yl)pyrido[3,2-d]pyrimidine-2,4-diamine] | 9.1 µM | 9.3 µM | > 50 µM |  |  | 
20 | CCCCC(CC)(CO)Nc1nc(N)nc2cccnc12 (stereo not drawn) [Example 85, 2-((2-aminopyrido[3,2-d]pyrimidin-4-yl)amino)-2-ethylhexan-1-ol] | 0.8 µM | 0.86 µM | 4 µM |  |  | 
21 | CCC[C@@H](CO)Nc1nc(N)nc2cc(C)cnc12 [Example 20, (S)-2-((2-amino-7-methylpyrido[3,2-d]pyrimidin-4-yl)amino)pentan-1-ol] | 2.8 µM | 3.2 µM | 5.4 µM |  |  | 
22 | CCCC[C@](C)(CO)Nc1nc(N)nc2cc(N)cnc12 [Example 115, (R)-2-((2,7-diaminopyrido[3,2-d]pyrimidin-4-yl)amino)-2-methylhexan-1-ol] | 0.027 µM | 0.024 µM | 9 µM |  |  | 
23 | CCCCCNc1nc(N)nc2cccnc12 [Example 11, N^4-pentylpyrido[3,2-d]pyrimidine-2,4-diamine] | 6 µM | 10.1 µM | 6.9 µM |  |  | 
24 | CCC[C@@H](CO)Nc1nc(N)nc2c(C)ccnc12 [Example 26E, (S)-2-((2-amino-8-methylpyrido[3,2-d]pyrimidin-4-yl)amino)pentan-1-ol] | 1.7 µM | 2.3 µM | 13.5 µM |  |  | 
25 | Nc1nc(N[C@@H](CO)CCCC(F)(F)F)c2ncccc2n1 [Example 99, (R)-2-((2-aminopyrido[3,2-d]pyrimidin-4-yl)amino)-6,6,6-trifluorohexan-1-ol] | 3.6 µM | 3.4 µM | > 50 µM |  |  | 
26 | CCC[C@@H](CO)Nc1nc(N)nc2cc(F)c(Cl)nc12 [Example 24D] | 3.1 µM | 3.4 µM | 18.4 µM |  |  | 
27 | CCCCC[C@](C)(CO)Nc1nc(N)nc2cc(F)cnc12 [Example 112, (R)-2-((2-amino-7-fluoropyrido[3,2-d]pyrimidin-4-yl)amino)-2-methylheptan-1-ol] |  |  |  | 0.33 µM | 0.36 µM | > 50 µM
28 | CCC[C@H](Nc1nc(N)nc2cccnc12)C(=O)NCc1ccccn1 [Example 37, (S)-2-((2-aminopyrido[3,2-d]pyrimidin-4-yl)amino)-N-(pyridin-2-ylmethyl)pentanamide] | > 50 µM | > 50 µM | > 50 µM |  |  | 
29 | Nc1nc(NCCO)c2ncccc2n1 [Example 12, 2-((2-aminopyrido[3,2-d]pyrimidin-4-yl)amino)ethanol] | > 50 µM | > 50 µM | > 50 µM |  |  | 
30 | CCCC[C@H](CO)Nc1nc(N)nc2cc(CC)cnc12 [Example 71, (R)-2-((2-amino-7-ethylpyrido[3,2-d]pyrimidin-4-yl)amino)hexan-1-ol] | 2.7 µM | 2.6 µM | > 50 µM |  |  | 
31 | CCCC[C@H](CO)Nc1nc(N)nc2cc(O)cnc12 [Example 68, (R)-2-amino-4-((1-hydroxyhexan-2-yl)amino)pyrido[3,2-d]pyrimidin-7-ol] | 14.2 µM | 11.1 µM | > 50 µM |  |  | 
32 | Nc1nc(N[C@H](CO)CC2CC2)c2ncccc2n1 [Example 4B, (S)-2-((2-aminopyrido[3,2-d]pyrimidin-4-yl)amino)-3-cyclopropylpropan-1-ol] | 5.4 µM | 9.1 µM | 5.9 µM |  |  | 
